Assay results as given in PMC4899283 (Structure (London, England : 1993), 2016).

Experiments:
[1] = molecular target: T1, full-length bcMalT (EIIB and EIIC domains) (Bacillus cereus, UniProt Q63GK8); assay: scintillation proximity assay, competition with [3H]maltose; assay type: binding; details: 1 μM [3H]maltose, 4 mM LDAO, pH 7.5, 150 mM NaCl, 4 °C; homologous competition
T1 sequence (Q63GK8 1-545): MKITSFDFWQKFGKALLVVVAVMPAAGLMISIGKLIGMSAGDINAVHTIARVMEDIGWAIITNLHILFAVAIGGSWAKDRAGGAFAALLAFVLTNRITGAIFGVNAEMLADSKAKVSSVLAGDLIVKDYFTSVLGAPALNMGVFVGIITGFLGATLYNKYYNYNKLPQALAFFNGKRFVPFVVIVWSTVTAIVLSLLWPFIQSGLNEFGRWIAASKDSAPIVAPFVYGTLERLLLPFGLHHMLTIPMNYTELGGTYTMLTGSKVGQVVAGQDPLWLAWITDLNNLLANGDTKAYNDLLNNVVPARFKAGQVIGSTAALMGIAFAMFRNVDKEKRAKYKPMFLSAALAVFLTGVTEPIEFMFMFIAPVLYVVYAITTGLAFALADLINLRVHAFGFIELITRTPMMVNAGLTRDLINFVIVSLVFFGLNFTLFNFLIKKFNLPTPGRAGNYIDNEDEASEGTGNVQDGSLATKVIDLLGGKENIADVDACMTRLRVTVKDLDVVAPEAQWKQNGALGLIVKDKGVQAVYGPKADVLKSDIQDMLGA

[2] = molecular target: T1, full-length bcMalT (EIIB and EIIC domains); assay: as above; assay type: binding; details: 1 μM [3H]maltose, 4 mM LDAO, pH 7.5, 150 mM NaCl, 4 °C

SMILES: OC[C@H]1O[C@H](O[C@H]2[C@H](O)[C@@H](O)C(O)O[C@@H]2CO)[C@H](O)[C@@H](O)[C@@H]1O (some centres unmarked) [maltose]
- IC50 [1]: 4.5 ± 1.1 µM

SMILES: OC[C@H]1O[C@@](CO)(O[C@H]2O[C@H](CO)[C@@H](O)[C@H](O)[C@H]2O)[C@@H](O)[C@@H]1O [sucrose]
- binding competition at 500 μM [2]: No significant binding was observed for a number of other sugars tested, with the exception of sucrose
